Assay results as given in patent US20250179050A1, “POLYMORPH AS THYROID HORMONE RECEPTOR AGONISTS AND USE THEREOF” (XIZANG HAISCO PHARMACEUTICAL CO., LTD., priority 2022, published 2025).

Experiments:
Format in all cases: physicochemical
[1] = Stability test 2: 40° C.±2° C., 75% RH±5% RH, HPLC related substances and crystal form; details: for Crystal form / Related Substances (%) Maximum individual impurity / Related Substances (%) Total impurity: 40° C.±2° C.
Description: The Form C sample was measured using the HPLC method at 40° C.±2° C., 75% RH±5% RH at months 0, 1, 2, 3, and 6 using a double layer pharmaceutical low density polyethylene bag as an inner wrap and a polyester/aluminum/polyethylene pharmaceutical composite bag as an outer wrap.

[2] = Stability test 1: high temperature, high humidity, light, accelerated conditions, XRPD; details: 15 days
Description: Around 20 mg of samples were weighed into weighing bottles, stored under high temperature (60° C.), high humidity (25° C., 92.5% RH), light (25° C., 4500 Lux), accelerated (40° C., 75% RH) conditions, respectively, and samples were collected at days 7 and 15 for XRPD characterization.

[3] = Stability test 3: 5° C.±3° C., HPLC related substances; details: for Crystal form / Related Substances (%) Maximum individual impurity / Related Substances (%) Total impurity: 5° C.±3° C.
Description: The Form C sample was measured using the HPLC method at 5° C.±3° C. at months 0, 3, 6, 9, and 12 using a double layer pharmaceutical low density polyethylene bag as an inner wrap and a polyester/aluminum/polyethylene pharmaceutical composite bag as an outer wrap.

[4] = Dynamic moisture sorption and desorption analysis (DVS)
Description: Dynamic Moisture Sorption and Desorption Analysis The dynamic moisture sorption and desorption analysis was determined using DVS Intrinsic (SMS, UK). The test was carried out in a gradient mode with a humidity change of 50%-95%-0%-50%, and a humidity change of 10% per gradient in the range of 0% to 90%, and the gradient endpoint was determined in dm/dt, with the gradient endpoint being dm/dt less than 0.002% and held for 10 minutes. After the test was complete, XRPD analysis of the sample was carried out to confirm whether the solid morphology has changed.

[5] = Stability test 4: 25° C.±2° C., 60% RH±5% RH, HPLC related substances; details: for Crystal form / Related Substances (%) Maximum individual impurity / Related Substances (%) Total impurity: 25° C.±2° C.
Description: The Form C sample was measured using the HPLC method at 25° C.±2° C., 60% RH±5% RH at months 0, 3, 6, 9, and 12 using a double layer pharmaceutical low density polyethylene bag as an inner wrap and a polyester/aluminum/polyethylene pharmaceutical composite bag as an outer wrap.

[6] = Stability test 5: 30° C.±2° C., 65% RH±5% RH, HPLC related substances; details: for Crystal form / Related Substances (%) Maximum individual impurity / Related Substances (%) Total impurity: 30° C.±2° C.
Description: The Form C sample was measured using the HPLC method at 30° C.±2° C., 65% RH±5% RH at months 0, 3, 6, 9, and 12 using a double layer pharmaceutical low density polyethylene bag as an inner wrap and a polyester/aluminum/polyethylene pharmaceutical composite bag as an outer wrap.

[7] = Crystal form on leaving to stand at room temperature; details: room temperature for 3 days
Description: To 100 mg of the compound of formula I prepared in Example 1, 1 ml of methanol was added and heated to reflux. 1 ml of acetonitrile was added dropwise, slowly cooled to room temperature, stirred for 3-5 h and centrifuged, and the resulting solid was dried under vacuum overnight at room temperature to give Form U. Form U of the compound of formula I was characterized by XRPD, DSC and TGA, as shown in FIGS. 41-42, respectively. […] Based on the integration results, the roughly estimated mass percentage is about 5.2%. In summary, Form U is a solvate of acetonitrile in a ratio of 1:1 of the compound to acetonitrile.

[8] = Thermal crystal transformation test (hot stage, XRPD)
Description: The present invention further provides a method for preparing the polymorph of any one of Form A to Form Z, including: • (1) suspension method: adding a crude free base of the compound of formula I (which can be prepared according to the methods described in WO 2019240938 A1) to a selected single or binary solvent until a suspension is formed and stirring same under suspension at room temperature to 50° C. for a period of time (e.g., 1 h to 3 days, or 2 h to 24 h, or 2 h to 12 h, or 3 h to 5 h), and then centrifuging and separating the suspension, followed by drying, to obtain the product; or • (2) Anti-solvent crystallization method: adding a crude free base of the compound of formula I to an appropriate amount of a good solvent until completely dissolved, taking an amount of the solution and dropwise adding same to a poor solvent or dropwise adding a poor solvent to the solution, and stirring same to precipitate a solid, followed by separation and drying to obtain the product; or • (3) cooling method: adding a crude free base of the compound of formula I to an appropriate amount of a solvent at 50-80° C. until the solid is just completely dissolved, and transferring the solution to an environment at room temperature for cooling, followed by leaving to stand or crystallization under stirring, separation and drying to obtain the product; or • (4) vapor diffusion method: dropwise adding an appropriate amount of a good solvent to an amount of a crude free base of the compound of formula I at room temperature to completely dissolve the sample or formulating same as a saturated solution of a good solvent; and separately taking an amount of the solution, and leaving the clear solution to stand in a poor solvent atmosphere at room temperature until a solid precipitates out, followed by separation, to obtain the product; or • (5) thermal crystal transformation method: placing an amount of the sample on a glass plate on a hot stage, heating same to the target temperature at a rate (e.g., 5-20° C./min, or 10-15° C./min), and maintaining the temperature for a period of time (e.g., 0.5-5 min, or 1-3 min, or 1-2 min), followed by naturally cooling down to room temperature to obtain a solid.
The different crystal forms, as raw materials, were heated to the target temperature on a hot table and held for 1 min, and cooled to room temperature to obtain solids for the XRPD test.

## [2H]C([2H])([2H])[C@@H]1CCc2c(Oc3c(Cl)cc(-n4nc(C#N)c(=O)[nH]c4=O)cc3Cl)n[nH]c(=O)c21 [Form C, (R)-2-(3,5-dichloro-4-((7-(methyl-d3)-1-oxo-2,5,6,7-tetrahydro-1H-cyclopenta [d]pyridazin-4-yl)oxy)phenyl)-3,5-dioxo-2,3,4,5-tetrahydro-1,2,4-triazine-6-carbonitrile]
[1]; 0 months
  Crystal form: Form C
  Related Substances (%) Maximum individual impurity: 0.05%
  Related Substances (%) Total impurity: 0.26%
[1]; 1 month
  Crystal form: Form C
  Related Substances (%) Maximum individual impurity: 0.05%
  Related Substances (%) Total impurity: 0.25%
[1]; 2 months
  Crystal form: Form C
  Related Substances (%) Maximum individual impurity: 0.05%
  Related Substances (%) Total impurity: 0.26%
[1]; 3 months
  Crystal form: Form C
  Related Substances (%) Maximum individual impurity: 0.05%
  Related Substances (%) Total impurity: 0.26%
[1]; 6 months
  Crystal form: Form C
  Related Substances (%) Maximum individual impurity: 0.05%
  Related Substances (%) Total impurity: 0.28%
[1]; within 6 months at 40° C.±2° C.
  stability (related substances): good stability
[2]; accelerated (40° C., 75% RH)
  crystal form stability (XRPD): no change in crystal form
[2]; high humidity (25° C., 92.5% RH)
  crystal form stability (XRPD): no change in crystal form
[2]; high temperature (60° C.)
  crystal form stability (XRPD): no change in crystal form
[2]; light (25° C., 4500 Lux)
  crystal form stability (XRPD): no change in crystal form
[3]; 0 months
  Crystal form: Form C
  Related Substances (%) Maximum individual impurity: 0.05%
  Related Substances (%) Total impurity: 0.26%
[3]; 3 months
  Crystal form: Form C
  Related Substances (%) Maximum individual impurity: 0.05%
  Related Substances (%) Total impurity: 0.27%
[3]; 6 months
  Crystal form: Form C
  Related Substances (%) Maximum individual impurity: 0.05%
  Related Substances (%) Total impurity: 0.26%
[3]; 9 months
  Crystal form: Form C
  Related Substances (%) Maximum individual impurity: 0.05%
  Related Substances (%) Total impurity: 0.26%
[3]; 12 months
  Crystal form: Form C
  Related Substances (%) Maximum individual impurity: 0.05%
  Related Substances (%) Total impurity: 0.26%
[3]; within 12 months at 5° C.±3° C.
  stability (related substances): good stability
[4]; DVS 50%-95%-0%-50% humidity
  hygroscopicity: almost no hygroscopicity
[4]; at 0% humidity
  DVS weight loss: 0.13%
[4]; at 95% humidity
  DVS weight gain: 0.20%
[4]; samples after the DVS test
  crystal form after the DVS test (XRPD): no change in crystal form
[5]; 0 months
  Crystal form: Form C
  Related Substances (%) Maximum individual impurity: 0.05%
  Related Substances (%) Total impurity: 0.26%
[5]; 3 months
  Crystal form: Form C
  Related Substances (%) Maximum individual impurity: 0.05%
  Related Substances (%) Total impurity: 0.27%
[5]; 6 months
  Crystal form: Form C
  Related Substances (%) Maximum individual impurity: 0.05%
  Related Substances (%) Total impurity: 0.26%
[5]; 9 months
  Crystal form: Form C
  Related Substances (%) Maximum individual impurity: 0.05%
  Related Substances (%) Total impurity: 0.26%
[5]; 12 months
  Crystal form: Form C
  Related Substances (%) Maximum individual impurity: 0.05%
  Related Substances (%) Total impurity: 0.27%
[5]; within 12 months at 25° C.±2° C.
  stability (related substances): good stability
[6]; 0 months
  Crystal form: Form C
  Related Substances (%) Maximum individual impurity: 0.05%
  Related Substances (%) Total impurity: 0.26%
[6]; 3 months
  Crystal form: Form C
  Related Substances (%) Maximum individual impurity: 0.05%
  Related Substances (%) Total impurity: 0.26%
[6]; 6 months
  Crystal form: Form C
  Related Substances (%) Maximum individual impurity: 0.05%
  Related Substances (%) Total impurity: 0.27%
[6]; 9 months
  Crystal form: Form C
  Related Substances (%) Maximum individual impurity: 0.05%
  Related Substances (%) Total impurity: 0.25%
[6]; 12 months
  Crystal form: Form C
  Related Substances (%) Maximum individual impurity: 0.05%
  Related Substances (%) Total impurity: 0.26%
[6]; within 12 months at 30° C.±2° C.
  stability (related substances): good stability

## [2H]C([2H])([2H])[C@@H]1CCc2c(Oc3c(Cl)cc(-n4nc(C#N)c(=O)[nH]c4=O)cc3Cl)n[nH]c(=O)c21 [Form U, (R)-2-(3,5-dichloro-4-((7-(methyl-d3)-1-oxo-2,5,6,7-tetrahydro-1H-cyclopenta [d]pyridazin-4-yl)oxy)phenyl)-3,5-dioxo-2,3,4,5-tetrahydro-1,2,4-triazine-6-carbonitrile]
[7]
  crystal form after leaving to stand: Form L
[8]; heated to 250° C.
  crystal form after thermal crystal transformation: Form C
[8]; target temperature 250° C., heating rate 10° C./min, holding time 1 min
  Results (crystal form after thermal crystal transformation, XRPD): Form C
